{
  "source": "patent US10369123B2",
  "about": "“Perk activator for the treatment of neurodegenerative diseases” (DEUTSCHES ZENTRUM FÜR NEURODEGENERATIVE ERKRANKUNGEN E.V. …, priority 2014, dated 2019)",
  "format_in_all_cases": "cell-based, human",
  "key": {"[1]": {"tested_on": "LUHMES cells", "experiment": "Identification of non-toxic, effective concentrations of PERK modulators (MTT viability, pEIF2A Western blot)", "settings": "for non-toxic concentration effectively modifying EIF2A phosphorylation: LUHMES neurons, 48 h", "method": "Nunc™ Nunclon™ Delta 6-well (for protein and mRNA) or 48-well (for cell assays) plates (Thermo Fisher Scientific, Waltham, Mass., USA) were coated with 100 μg/ml poly-L-lysine (Sigma-Aldrich, St. Louis, Mo., USA) and 5 μg/ml fibronectin (Sigma-Aldrich). […] They were then differentiated for 8 days in a medium of DMEM/F12 (Sigma-Aldrich), 1 μg/ml tetracycline, […] and 490 μg/ml dbcAMP into post-mitotic neurons with a dopaminergic phenotype (Lotharius et al. 2005). […] 20 μg of protein (unless indicated otherwise) were adjusted to equal concentrations between samples by dilution with M-PER and subsequently heated at 95° C. for 5 minutes with Roti®-Load 1 (Carl Roth). SDS-PAGE was performed using Any kD™ Mini-PROTEAN® TGX™ Gels (BioRad, Berkeley, Calif., USA) in a tris-glycine running buffer. The protein was blotted onto PVDF membrane (BioRad) at 70 V for 65 minutes on ice. The membrane was blocked with 1× Roti®-Block solution (Carl Roth) for 1 h and then incubated at 4° C. overnight under gentle shaking with the primary antibody (see Table 5) in TBS with 5% BSA (Cell Signaling Technology) and 0.05% TWEEN (Sigma-Aldrich). Thiazolyl Blue Tetrazolium […] (Sigma Aldrich) was dissolved in sterile PBS to a concentration of 5 mg/ml. […] The 48-well culture plate was then incubated at 37° C. for 1 h, the medium removed completely and frozen at −80° C. for 1 h. The plate was then thawed, 300 μl DMSO (AppliChem, Darmstadt, Germany) was added per well and the plate was shaken to ensure complete dissolution of the violet crystals. 100 μl from each well were transferred to a new 96-well plate and the absorbance was read with the FLUOstar Omega (BMG Labtech) platereader at a wavelength of 590 nm (reference wave length 630 nm). The data was analyzed using the MARS Data Analysis Software (BMG Labtech) and Prism 6."}, "[2]": {"tested_on": "LUHMES neurons", "experiment": "MTT assay, annonacin-treated LUHMES neurons", "settings": "annonacin + PERK activator 200 nM or PERK inhibitor 300 nM, 48 h, vs no PERK modulator", "method": "(§1) Nunc™ Nunclon™ Delta 6-well (for protein and mRNA) or 48-well (for cell assays) plates (Thermo Fisher Scientific, Waltham, Mass., USA) were coated with 100 μg/ml poly-L-lysine (Sigma-Aldrich, St. Louis, Mo., USA) and 5 μg/ml fibronectin (Sigma-Aldrich). LUHMES (Lund Human Mesencephalic) cells, derived from human embryonic ventral mesencephalic cells by conditional immortalization (Tet-off v-myc over-expression) were seeded out in a concentration of 130,000 cells/cm^2 to achieve a confluence of 50%. They were then differentiated for 8 days in a medium of DMEM/F12 (Sigma-Aldrich), 1 μg/ml tetracycline, […] and 490 μg/ml dbcAMP into post-mitotic neurons with a dopaminergic phenotype (Lotharius et al. 2005).\n(§2) For all experiments with annonacin, the medium was replaced during the intoxication period with new medium containing glucose levels reduced to 250 μM, i.e. the physiological concentration in the human brain.\nThiazolyl Blue Tetrazolium […] (MTT) (Sigma Aldrich) was dissolved in sterile PBS to a concentration of 5 mg/ml. This stock solution was added to the cells in culture medium to achieve a final concentration of 0.5 mg/ml. The 48-well culture plate was then incubated at 37° C. for 1 h, the medium removed completely and frozen at −80° C. for 1 h. The plate was then thawed, 300 μl DMSO (AppliChem, Darmstadt, Germany) was added per well and the plate was shaken to ensure complete dissolution of the violet crystals. 100 μl from each well were transferred to a new 96-well plate and the absorbance was read with the FLUOstar Omega (BMG Labtech) platereader at a wavelength of 590 nm (reference wave length 630 nm). The data was analyzed using the MARS Data Analysis Software (BMG Labtech) and Prism 6."}, "[3]": {"tested_on": "LUHMES neurons", "experiment": "ATP assay, annonacin-treated LUHMES neurons", "settings": "annonacin + PERK activator 200 nM or PERK inhibitor 300 nM, 48 h, vs no PERK modulator", "method": "as §1, §2\n(§3) ATP assays were conducted using the ViaLight™ plus kit by Lonza according to the manufacturer's instructions. Luminescence was read with the FLUOstar Omega (BMG Labtech) platereader. The data was analyzed using the MARS Data Analysis Software (BMG Labtech) and Prism 6."}, "[4]": {"tested_on": "LUHMES neurons overexpressing 4R-tau", "experiment": "ATP assay, LUHMES neurons overexpressing 4R-tau", "settings": "lentiviral 4R-tau overexpression 10 days, co-administration of PERK modulator", "method": "as §1, with “2005). […]” for “2005).”\nConcentrated lentiviral particles were titrated by transducing LUHMES cells with different dilutions at 6 hours after initiating differentiation. The lowest dilution at which at least 90% of cells expressed the transgene (as determined by immunohistochemistry of the cells fixed on day 2 post differentiation) was chosen for subsequent experiments. […]\nas §3"}},
  "note": "“Also recorded” adds a separate entry of the source.",
  "data": [
    {"smiles": "Cn1cc(-c2ccc3c(c2)CCN3C(=O)Cc2cccc(C(F)(F)F)c2)c2c(N)ncnc21", "note": "[GSK2606414, reference compound]", "values": [
      {"measurement": "non-toxic concentration effectively modifying EIF2A phosphorylation", "setting": "[1]", "result": 300, "unit": "nM"},
      {"measurement": "MTT test, effect of co-treatment", "setting": "[2]", "result": "did not significantly improve; also recorded: never significant"},
      {"measurement": "ATP concentration, effect of co-treatment", "setting": "[3]", "result": "slightly improved ATP concentrations at the single annonacin concentration of 12.5 nM; also recorded: significant only at an annonacin concentration of 12.5 nM"},
      {"measurement": "4R-specific toxicity in ATP assay", "setting": "[4]", "result": "provided protection in the ATP assay, but to a lesser extent"}
    ]},
    {"smiles": "CCN(CC)CCC(=O)N1N=C(c2c(-c3ccccc3)c3cc(Br)ccc3[nH]c2=O)CC1c1ccc(Br)cc1", "note": "(stereo not drawn) [CCT020312, 6-bromo-3-[5-(4-bromo-phenyl)-1-(3-diethylamino-propionyl)-4,5-dihydro-1H-pyrazol-3-yl]-4-phenyl-1H-quinolin-2-one]", "values": [
      {"measurement": "non-toxic concentration effectively modifying EIF2A phosphorylation", "setting": "[1]", "result": 200, "unit": "nM"},
      {"measurement": "doses at which detrimental effects of UPR overactivation were seen", "setting": "[1]; in vitro", "result": "> 3", "unit": "µM"},
      {"measurement": "MTT test, effect of co-treatment", "setting": "[2]", "result": "significant improvement"},
      {"measurement": "ATP concentration, effect of co-treatment", "setting": "[3]", "result": "significant improvement"},
      {"measurement": "4R-specific toxicity in ATP assay", "setting": "[4]", "result": "reduced significantly"}
    ]}
  ]
}
